Publication PMC8765048 (JCI Insight, 2022)

What was measured:
Huh-7 cells = assay: Acute mitochondrial or glycolytic stress assay (Seahorse XF96e); format: cell-based, human
From the text: Other important measures of cell viability are mitochondrial integrity, function, cardiotoxicity, and genotoxicity, since other nucleoside analogs may vary in their effect on these endpoints ([29], [30]). Dyes commonly used to assess mitochondrial integrity are MitoTracker Green (MTG), a mitochondrial stain mostly localized to mitochondria based on hydrophobicity, and N-alkyl acridine orange (NAO), which binds to mitochondrial cardiolipin. Untreated Huh-7 cells and Huh-7 cells treated for 5 days with 100 nM sangivamycin were stained with MTG and NAO and imaged by fluorescence microscopy. […] To more quantitatively assess the impact of sangivamycin on mitochondrial integrity, we evaluated the effect of sangivamycin on mitochondrial metabolic function as well as cytoplasmic glycolytic function. The XF96e Seahorse instrument was used to quantify the oxygen consumption rate (OCR) over time in untreated control and sangivamycin-treated Huh-7 cells. […] Standard metabolic endpoints quantified with or without sangivamycin included sequential treatment and washout of cell cultures with oligomycin (ATP synthase inhibitor), carbonyl cyanide 4-(trifluoromethoxy)phenylhydrazone (FCCP; a proton gradient uncoupler), and antimycin A + rotenone (complex I and III blockers) (Supplemental Figure 7). […]

CYP2D6 = molecular target: T1, CYP2D6 (Homo sapiens, UniProt P10635); assay: CYP inhibition testing, human liver microsomes; format: in vitro ADME
T1 construct: along with human liver microsomes (0.5 mg/mL) and cofactors; tissue Cyprotex (performed the assay); host or cells: human liver microsomes
Procedure: (§1) Sangivamycin was incubated by Cyprotex with a cocktail of model CYP substrates for CYP1A2, CYP2B6, CYP2C8, CYP2C9, CYP2C19, CYP2D6, CYP3A4, and CYP3A4, along with human liver microsomes (0.5 mg/mL) and cofactors (2.5 mM NADPH and 3.3 mM MgCl2), in 0.1 M phosphate buffer (pH 7.4) for 20 minutes at 37°C. Known CYP inhibitors were used in lieu of sangivamycin as positive controls: furafylin (1A2), thioTEPA (2B6), montelukast (2C8), sulfaphenazole (2C9), nootkatone (2C19), quinidine (2D6), and ketoconazole (3A4). Formation of substrate breakdown metabolites was measured by LC-MS/MS and compared with control incubation (incubation of substrates with microsomes and cofactors but in the absence of sangivamycin or in the presence of known inhibitors). CYP inhibition was measured as a decrease in the formation of expected metabolites in the presence of sangivamycin or control inhibitor (defined as a percentage of control).

CYP2C9 = molecular target: T2, CYP2C9 (Homo sapiens, UniProt P11712); assay: CYP inhibition testing, human liver microsomes; format: in vitro ADME
T2 construct: along with human liver microsomes (0.5 mg/mL) and cofactors; tissue Cyprotex (performed the assay); host or cells: human liver microsomes
Procedure: as §1

CYP2C19 = molecular target: T3, CYP2C19 (Homo sapiens, UniProt P33261); assay: CYP inhibition testing, human liver microsomes; format: in vitro ADME
T3 construct: along with human liver microsomes (0.5 mg/mL) and cofactors; tissue Cyprotex (performed the assay); host or cells: human liver microsomes
Procedure: as §1

CYP1A2 = molecular target: T4, CYP1A2 (Homo sapiens, UniProt P05177); assay: CYP inhibition testing, human liver microsomes; format: in vitro ADME
T4 construct: along with human liver microsomes (0.5 mg/mL) and cofactors; tissue Cyprotex (performed the assay); host or cells: human liver microsomes
Procedure: as §1

CYP3A4 = molecular target: T5, CYP3A4 (Homo sapiens, UniProt P08684); assay: CYP inhibition testing, human liver microsomes; format: in vitro ADME
T5 construct: along with human liver microsomes (0.5 mg/mL) and cofactors; tissue Cyprotex (performed the assay); host or cells: human liver microsomes
Procedure: as §1

CYP2B6 = molecular target: T6, CYP2B6 (Homo sapiens, UniProt P20813); assay: CYP inhibition testing, human liver microsomes; format: in vitro ADME
T6 construct: along with human liver microsomes (0.5 mg/mL) and cofactors; tissue Cyprotex (performed the assay); host or cells: human liver microsomes
Procedure: as §1

CYP2C8 = molecular target: T7, CYP2C8 (Homo sapiens, UniProt P10632); assay: CYP inhibition testing, human liver microsomes; format: in vitro ADME
T7 construct: along with human liver microsomes (0.5 mg/mL) and cofactors; tissue Cyprotex (performed the assay); host or cells: human liver microsomes
Procedure: as §1

[1] = tested on: SARS-CoV-2 B.1.1.7 (Alpha); assay: microbe, parasite or virus in culture; format: cell-based
[2] = tested on: SARS-CoV-2 B.1.1.7 (Alpha); assay: microbe, parasite or virus in culture; format: cell-based; remark: listed apart in the source
[3] = tested on: SARS-CoV-2 B.1.617.2 (Delta); assay: microbe, parasite or virus in culture; format: cell-based
[4] = tested on: Vero E6 (grivet kidney epithelial); assay: CellTox Green Cytotoxicity Assay; details: ratio > 1 cytostatic, ≤ 1 cytotoxic
[5] = CellTiter-Glo cell viability assay; format: cell-based; details: Primary human hepatocytes
SARS-CoV-2 [6] = assay: microbe, parasite or virus in culture; format: cell-based
SARS-CoV-2 [7] = assay: Combinatorial sangivamycin/remdesivir efficacy testing, Caco-2 cells; format: cell-based; details: Severe acute respiratory syndrome coronavirus 2, Caco-2; read-out: IC50 (nM), S:R by [Sangivamycin]
[8] = Severe acute respiratory syndrome coronavirus 2, Vero C1008, 24 h
[9] = Severe acute respiratory syndrome coronavirus 2, Calu-3, 24 h

T5 sequence (P08684 whole entry): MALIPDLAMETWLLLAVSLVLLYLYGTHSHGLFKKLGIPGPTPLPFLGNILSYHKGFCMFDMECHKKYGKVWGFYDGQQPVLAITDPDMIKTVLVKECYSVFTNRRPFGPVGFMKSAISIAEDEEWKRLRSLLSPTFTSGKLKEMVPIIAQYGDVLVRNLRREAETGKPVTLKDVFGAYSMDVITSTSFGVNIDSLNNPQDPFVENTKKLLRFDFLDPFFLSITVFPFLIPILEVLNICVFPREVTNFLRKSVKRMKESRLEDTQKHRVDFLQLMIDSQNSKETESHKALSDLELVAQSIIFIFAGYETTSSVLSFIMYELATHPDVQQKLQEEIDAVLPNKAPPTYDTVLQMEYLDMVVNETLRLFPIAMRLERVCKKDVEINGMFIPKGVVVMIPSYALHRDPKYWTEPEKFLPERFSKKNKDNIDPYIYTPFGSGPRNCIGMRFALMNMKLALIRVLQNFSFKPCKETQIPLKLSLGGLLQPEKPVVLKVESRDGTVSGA
T1 sequence (P10635 whole entry): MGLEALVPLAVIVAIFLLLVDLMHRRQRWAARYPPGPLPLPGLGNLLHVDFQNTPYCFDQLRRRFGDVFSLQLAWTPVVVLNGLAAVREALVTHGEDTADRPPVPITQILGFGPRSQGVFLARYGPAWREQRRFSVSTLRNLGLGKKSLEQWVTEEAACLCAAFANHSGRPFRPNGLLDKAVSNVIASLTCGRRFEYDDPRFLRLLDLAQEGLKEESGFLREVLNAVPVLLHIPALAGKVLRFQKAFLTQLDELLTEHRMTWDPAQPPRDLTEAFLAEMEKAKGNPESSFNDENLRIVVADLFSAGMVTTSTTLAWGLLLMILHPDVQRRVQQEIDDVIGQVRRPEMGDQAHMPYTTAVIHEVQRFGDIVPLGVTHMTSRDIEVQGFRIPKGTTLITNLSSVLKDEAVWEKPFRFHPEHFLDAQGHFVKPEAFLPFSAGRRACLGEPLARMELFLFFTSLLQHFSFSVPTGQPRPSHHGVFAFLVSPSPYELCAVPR
T4 sequence (P05177 whole entry): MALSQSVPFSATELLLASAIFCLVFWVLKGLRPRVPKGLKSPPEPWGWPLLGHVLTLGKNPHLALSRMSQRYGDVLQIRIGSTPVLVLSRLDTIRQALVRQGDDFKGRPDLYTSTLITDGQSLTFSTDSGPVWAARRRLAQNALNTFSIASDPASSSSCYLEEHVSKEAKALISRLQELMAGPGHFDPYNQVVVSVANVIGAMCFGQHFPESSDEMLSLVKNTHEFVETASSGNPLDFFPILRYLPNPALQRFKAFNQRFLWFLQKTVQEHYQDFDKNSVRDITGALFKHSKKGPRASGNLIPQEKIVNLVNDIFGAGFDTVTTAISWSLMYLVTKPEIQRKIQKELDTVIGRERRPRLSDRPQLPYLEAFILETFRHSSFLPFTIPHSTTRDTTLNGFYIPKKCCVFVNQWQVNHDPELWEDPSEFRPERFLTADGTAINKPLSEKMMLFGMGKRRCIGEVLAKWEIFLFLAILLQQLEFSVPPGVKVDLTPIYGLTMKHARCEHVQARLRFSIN
T6 sequence (P20813 whole entry): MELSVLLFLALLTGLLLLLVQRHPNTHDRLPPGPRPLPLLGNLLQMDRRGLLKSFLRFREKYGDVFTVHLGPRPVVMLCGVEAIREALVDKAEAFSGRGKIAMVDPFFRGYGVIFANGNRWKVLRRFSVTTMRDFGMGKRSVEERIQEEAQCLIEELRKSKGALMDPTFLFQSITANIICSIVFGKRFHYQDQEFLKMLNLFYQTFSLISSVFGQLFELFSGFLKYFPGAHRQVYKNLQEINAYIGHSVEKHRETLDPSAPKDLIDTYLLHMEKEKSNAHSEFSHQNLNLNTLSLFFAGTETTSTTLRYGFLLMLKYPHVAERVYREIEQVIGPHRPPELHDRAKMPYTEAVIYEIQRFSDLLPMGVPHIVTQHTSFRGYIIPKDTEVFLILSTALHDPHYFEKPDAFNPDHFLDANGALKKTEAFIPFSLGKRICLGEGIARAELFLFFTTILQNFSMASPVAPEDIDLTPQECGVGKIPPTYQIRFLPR
T7 sequence (P10632 whole entry): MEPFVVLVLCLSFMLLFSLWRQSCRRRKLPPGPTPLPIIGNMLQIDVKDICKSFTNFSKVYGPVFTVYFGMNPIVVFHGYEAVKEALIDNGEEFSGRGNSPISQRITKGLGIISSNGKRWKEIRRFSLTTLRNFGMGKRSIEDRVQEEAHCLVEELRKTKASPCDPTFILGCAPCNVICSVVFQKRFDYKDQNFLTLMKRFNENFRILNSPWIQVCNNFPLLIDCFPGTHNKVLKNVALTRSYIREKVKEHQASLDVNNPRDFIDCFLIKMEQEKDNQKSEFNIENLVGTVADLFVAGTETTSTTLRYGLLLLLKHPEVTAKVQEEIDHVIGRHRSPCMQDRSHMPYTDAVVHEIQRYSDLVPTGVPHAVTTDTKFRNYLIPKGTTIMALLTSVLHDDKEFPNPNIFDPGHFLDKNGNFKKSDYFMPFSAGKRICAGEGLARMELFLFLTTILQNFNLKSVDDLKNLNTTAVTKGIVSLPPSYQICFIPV
T2 sequence (P11712 whole entry): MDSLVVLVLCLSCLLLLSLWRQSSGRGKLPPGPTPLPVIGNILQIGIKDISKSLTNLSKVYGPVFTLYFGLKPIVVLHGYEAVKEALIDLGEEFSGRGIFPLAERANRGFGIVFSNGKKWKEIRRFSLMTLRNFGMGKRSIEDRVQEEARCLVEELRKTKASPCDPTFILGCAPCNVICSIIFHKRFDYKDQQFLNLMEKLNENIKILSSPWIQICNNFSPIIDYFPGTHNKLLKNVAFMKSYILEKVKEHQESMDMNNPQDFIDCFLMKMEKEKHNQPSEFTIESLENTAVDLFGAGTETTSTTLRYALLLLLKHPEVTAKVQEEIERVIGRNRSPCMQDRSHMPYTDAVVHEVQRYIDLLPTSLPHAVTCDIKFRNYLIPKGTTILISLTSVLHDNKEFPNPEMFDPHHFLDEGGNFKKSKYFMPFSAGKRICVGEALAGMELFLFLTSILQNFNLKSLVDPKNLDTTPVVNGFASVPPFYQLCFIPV
T3 sequence (P33261 whole entry): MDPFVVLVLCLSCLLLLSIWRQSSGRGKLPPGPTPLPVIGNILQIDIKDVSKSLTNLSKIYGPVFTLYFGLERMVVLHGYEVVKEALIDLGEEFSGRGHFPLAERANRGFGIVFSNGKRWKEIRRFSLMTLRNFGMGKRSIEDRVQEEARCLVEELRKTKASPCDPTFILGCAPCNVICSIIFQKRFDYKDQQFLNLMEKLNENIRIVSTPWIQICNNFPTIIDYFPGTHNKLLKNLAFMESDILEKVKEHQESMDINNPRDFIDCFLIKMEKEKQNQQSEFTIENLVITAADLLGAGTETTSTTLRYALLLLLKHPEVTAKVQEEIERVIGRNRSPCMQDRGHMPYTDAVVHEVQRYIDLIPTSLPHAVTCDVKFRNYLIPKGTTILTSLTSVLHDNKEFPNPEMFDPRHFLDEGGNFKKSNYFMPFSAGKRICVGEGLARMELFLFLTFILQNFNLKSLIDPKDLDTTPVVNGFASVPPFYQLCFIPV

With `NC(=O)c1cn([C@@H]2O[C@H](CO)[C@@H](O)[C@H]2O)c2ncnc(N)c12` [Sangivamycin, sangivamycin] as the compound, how does the “Acute effects on mitochondrial and glycolytic stress (Seahorse measurements)” value (Huh-7 cells; 0.05–5 μM) read?
The value was >5 µM.

And the “oxygen consumption rate (OCR) relative to untreated control cells” value (Huh-7 cells; up to 5 μM)?
The value was “did not significantly change the OCR”.

And the IC50 (CYP2D6)?
Its IC50 is > 100000 nM.

And the IC50 (CYP2C9)?
The IC50 was > 100000 nM.

What about the IC50 (CYP2C19) of the same compound?
Its IC50 is > 100000 nM.

What about the IC50 (CYP1A2) of the same compound?
Its IC50 is > 100000 nM.

What about the IC50 (CYP3A4) of the same compound?
The IC50 was > 100000 nM.

And the IC50 (CYP2B6)?
Its IC50 is > 100000 nM.

What about the IC50 (CYP2C8) of the same compound?
The IC50 was > 100000 nM.

And the “SI (selectivity index, CC50/IC50)” value ([1]; B.1.1.7 (Alpha), Vero E6 cells)?
The value was >39.0.

What about the IC50 [1, 8] of the same compound?
Its IC50 is 15.4 nM.

What about the IC90 [1, 8] of the same compound?
The IC90 was 164 nM.

And the “SI (selectivity index, CC50/IC50)” value ([2]; B.1.1.7 (Alpha), Calu-3 cells)?
The value was >10.1.

And the IC50 [2, 9]?
The IC50 was 59.1 nM.

What about the IC90 [2, 9] of the same compound?
The IC90 was 522 nM.

What about the “SI (selectivity index, CC50/IC50)” value ([3]; B.1.617.2 (Delta), Calu-3 cells) of the same compound?
The value was >7.6.

And the IC50 [3, 9]?
The IC50 was 79 nM.

What about the IC90 [3, 9] of the same compound?
Its IC90 is 290 nM.

And the CC50 (in vitro)?
The CC50 was > 5000 nM.

And the “Ratio CellTox Green/CellTiter-Glo” value [4]?
Its value is >10.2.

And the CC50 at 72 h [5]?
The CC50 at 72 h was 439 nM.

And the “SI calculated with the average CellTiter-Glo values” (SARS-CoV-2 [6])?
Its value is 13.

And the “average in vitro IC50 from all cell types tested, as dose” value (SARS-CoV-2 [6]; 2-compartment model for a 70 kg adult, water volumes 42 L)?
Its value is 0.01 mg/kg.

And the IC50 (SARS-CoV-2 [6]; Severe acute respiratory syndrome coronavirus 2, n = 22, read-out: average IC50 for all viral testing in all cell lines and MOIs)?
The IC50 was 47 ± 5 nM.

And the “SI calculated with the average CellTox Green” value (SARS-CoV-2 [6]; average CC50 / average IC50)?
Its value is > 106.

And the IC50 (SARS-CoV-2 [7])?
The IC50 was 39 nM.
